Measurements from patent US20250281393A1, “BODY CAVITY GEL” (CS MEDICA A/S, priority 2021, published 2025).
Where two headings read alike, the source gives them in different places.

Tested on: pathogens, such as virus, e.g. cold and/or flu
Conditions: in vivo

In the case of `C=C(C)[C@@H]1CCC(C)=C[C@H]1c1c(O)cc(CCCCC)cc1O` [type A CBD, Cannabidiol], the “Activity (potency) in protection against pathogens, compared with type B CBD” value is reported as “significantly more active” and the “Activity (potency) in protection against pathogens, compared with type B CBD” value (listed as crystal structure A) is reported as “significantly more potent”.
